In patent publication US20170299579A1, “VITELLINE MEMBRANE AS A MODEL OF THE BLOOD BRAIN BARRIER” (priority 2016, published 2017):
Read-outs that look alike come from different tables or passages of the source.

Tests used:
[1] = Spectrophotometric absorbance of yolk of decalcified quail eggs after incubation with agent; assay type: in vitro ADME
Method: (§1) An Ultrospect III spectrophotometer (Pharmacia, Cambridge, England) was recently calibrated by Spectrofuge Corporation of North Carolina, Inc. (Durham, N.C.). Blank quartz cuvettes were selected with the smallest deviation in absorbance. Standard solutions of 2.6×10^−3M acetaminophen and 4.4×10^−3 2-cholorprocaine were prepared. Approximate peak ultraviolet wavelengths were determined with the standard solutions in methanol and PBS. Fine adjustment of the optimum wavelength was performed by retrofit of Beer's law plots of the standards and dilutions. Optimum absorbance wavelengths for acetaminophen and 2-chloroprocaine were 300 nm 329 nm, respectively. Optimum absorbance wavelengths for acetaminophen and 2-choroprocaine dissolve in PBS were 319 nm and 340, respectively. (Table 3)
(§2) The decalcified eggs were soaked in solutions for 2 or 12 hours and then placed in a home freezer prior to analysis. The quail eggs were opened with a razor knife and the denatured albumen and yolk were separated. In most samples the vitelline membrane could be easily separated from the yolk. Samples of the denatured albumen and yolk were dissolved in 5 ml of methanol or PBS and centrifuged at 2700 rpm for 5 minutes. The supernatants were then clarified through a 0.2 micrometer filter (MILLEX-FG, Merck Millipore, Ltd). Clarification of the PBS samples was more difficult than the methanol samples. The clear filtrate was placed in quartz cuvettes. Any air bubbles were eliminated and the samples were analyzed in the spectrophotometer. (Tables 4&5)

[2] = Permeability of vitelline membrane of decalcified quail eggs (agent reaching the yolk), model of the human blood brain barrier
[3] = Spectrophotometric absorbance of albumen of decalcified quail eggs after incubation with agent; assay type: in vitro ADME
Method: as §1, §2

[4] = not told
[5] = not told; remark: listed apart in the source
[6] = in PBS, 4.4 × 10^−2 m/l, 340 nm, 12 hours
[7] = in methanol, 4.4 × 10^−2 m/L, 329 nm, 2 hours
[8] = in methanol, 4.4 × 10^−2 m/L, 329 nm, 12 hours

Row | Permeability (outer and inner membrane) [4] | Permeability (vitelline membrane) [5] | Structure (SMILES) | further results
1 |  |  | CCN(CC)CCOC(=O)c1ccc(N)cc1Cl [2-Chloroprocaine] | Yolk (abs) [1, 6]: 1.04 abs; Yolk (abs) [1, 7]: 1.37 abs; Yolk (abs) [1, 8]: 1.71 abs; Permeability (vitelline membrane) ([2]; agent in PBS, 2-Chloroprocaine 4 × 10^−2 M, Acetaminophen 2.6 × 10^−1 M, incubation time 12 hours): +; Permeability (vitelline membrane) ([2]; agent in methanol, 2-Chloroprocaine 4 × 10−2 M, Acetaminophen 2.6 × 10^−1 M, incubation time 2 & 12 hours): +; Crossing of the vitelline membrane ([2]; spectroscopic analysis): crossed the vitelline membrane; Albumen (abs) [3, 6]: 0.48 abs; Albumen (abs) [3, 7]: 1.86 abs; Albumen (abs) [3, 8]: 2.52 abs
2 | + | + | CC(=O)Nc1ccc(O)cc1 [Acetaminophen] | Yolk (abs) ([1]; quail, 2 h): 2.40 abs; Albumen (abs) ([3]; quail, 2 h): 2.85 abs; Crossing of the vitelline membrane [5]: crossed the vitelline membrane
3 | + | + | CCO [Ethanol] | Crossing of the vitelline membrane [5]: crossed the vitelline membrane
4 | + | − | O=C1OC2(c3ccc(O)cc3Oc3cc(O)ccc32)c2ccccc21 [Fluorescein] | 
5 |  |  | CN(C)c1ccc(C(=C2C=CC(=[N+](C)C)C=C2)c2ccccc2)cc1 [Malachite green] | Permeability (vitelline membrane) ([2]; 0.01M, incubation time 2 hours): −
6 | + | − | CN(C)c1ccc(/N=N/c2ccccc2C(=O)O)cc1 [Methyl red] | 
7 |  |  | [K+].[K+].[O]=[Cr](=[O])([O-])[O][Cr](=[O])(=[O])[O-] [Potassium dichromate] | Permeability (vitelline membrane) ([2]; 0.01M, incubation time 2 hours): −
8 | + | − | C=C[C@H]1C[N@@]2CC[C@H]1C[C@H]2[C@H](O)c1ccnc2ccc(OC)cc12 [Quinine] | 

Row | Structure (SMILES) | Permeability (outer and inner membrane) [4] | Permeability (vitelline membrane) [5] | further results
9 | Cc1cc(C2(c3ccc(O)c(C)c3)OS(=O)(=O)c3ccccc32)ccc1O [Creosol red] | + | − | 
10 | CCOCC [Ether, diethyl ether] | + |  | 
11 | CCN(Cc1cccc(S(=O)(=O)[O-])c1)c1ccc(C(=C2C=CC(=[N+](CC)Cc3cccc(S(=O)(=O)[O-])c3)C=C2)c2ccccc2S(=O)(=O)[O-])cc1.[Na+].[Na+] [FD&C Blue #1] | + | − | 
